Results from article PMC6433232, “Targeting mitochondria in cancer therapy could provide a basis for the selective anti-cancer activity” (PLoS ONE, 2019).
Like-named read-outs stand apart in the source and are kept apart here.

Legend:
[1] = tested on: pancreatic cancer MIA PaCa-2 cells; assay: cells; settings: for EC50 / CC50: Homo sapiens; for EC50: MIA PaCa-2, read-out: EC50, μM MIA PaCa-2; for CC50: MIA PaCa-2, read-out: LC50 MIA PaCa-2
Description: Fig 1 A, Structure of NSC130362. B, Dose response curve of NSC130362 in MIA PaCa-2 cells. Cells were pre-incubated with NSC130362 for 2 h followed by addition of ATO (5 μM) and incubation for an additional 24 h. At the end of the treatment, the ratio of dead cells was determined by a CellTiterGlo reagent.

[2] = tested on: breast carcinoma HCC1187 cells; assay: cells; assay type: cell-based; settings: for CC50: Homo sapiens; for Selective cytotoxicity index HCC 1187 ATO: human
Excerpt: For further analyses, we used compounds that have the selective cytotoxicity index either above 20 (non-toxic compounds) or below 1 (toxic compounds) with the aim to identify targets that are responsible for the selective activity of the identified compounds toward cancer cells. To confirm that the effects of the selected compounds are not only specific to MIA PaCa-2 cells, we evaluated their cytotoxic activities on breast carcinoma HCC1187 cells (Table 1). […] For easy comparison, the data with MIA PaCa-2 cells were also included in Table 1. […] We also noticed that, again with a few exceptions, HCC1187 cells are more resistant to the non-toxic compounds in the presence of ATO as compared to MIA PaCa-2 cells. In contrast, HCC1187 cells are more sensitive to all toxic compounds in the presence of ATO as compared to MIA PaCa-2 cells. The high sensitivity of HCC1187 cells to toxic compounds contributed to the increased selective cytotoxicity index.

[3] = tested on: hepatocytes; assay: Hydrogen peroxide cell-based assay (ROS induction), hepatocytes; parameters: species or system Human; settings: 30 μM; hydrogen peroxide level relative to DMSO-treated cells (100%)
Description: Cells were incubated for 2 h with either compounds (30 μM) or DMSO in a 96-well plate. After the treatment, 80 μl of cell culture medium was collected and the level of hydrogen peroxide was determined using a Hydrogen Peroxide Cell-Based Assay kit (Cayman).
Cells were incubated with the compounds for 4 h and the level of ROS induction was measured by a hydrogen peroxide cell-based assay kit. Compounds were assayed at a fixed concentration of 30 μM and the measured level of hydrogen peroxide was expressed as percentage in relation to DMSO-treated cells (100%). […] This distinction was more evident for compounds with the highest selective cytotoxicity index. […] We conclude that the selective induction of ROS in cancer cells is required but not sufficient factor for the selective anti-tumor activity.

[4] = target: T1, human GSR enzyme (recombinant GSR) (Homo sapiens, UniProt P00390); assay: Glutathione reductase (GSR) activity assay; assay type: biochemical; settings: for remaining activity at 30 µM: 2 h at 25°C, read-out: GSR, enzyme residual activity as compared to DMSO-treated sample
T1 construct: made in house; host or cells: E. coli BL21(DE3)
T1 sequence (P00390 44-522): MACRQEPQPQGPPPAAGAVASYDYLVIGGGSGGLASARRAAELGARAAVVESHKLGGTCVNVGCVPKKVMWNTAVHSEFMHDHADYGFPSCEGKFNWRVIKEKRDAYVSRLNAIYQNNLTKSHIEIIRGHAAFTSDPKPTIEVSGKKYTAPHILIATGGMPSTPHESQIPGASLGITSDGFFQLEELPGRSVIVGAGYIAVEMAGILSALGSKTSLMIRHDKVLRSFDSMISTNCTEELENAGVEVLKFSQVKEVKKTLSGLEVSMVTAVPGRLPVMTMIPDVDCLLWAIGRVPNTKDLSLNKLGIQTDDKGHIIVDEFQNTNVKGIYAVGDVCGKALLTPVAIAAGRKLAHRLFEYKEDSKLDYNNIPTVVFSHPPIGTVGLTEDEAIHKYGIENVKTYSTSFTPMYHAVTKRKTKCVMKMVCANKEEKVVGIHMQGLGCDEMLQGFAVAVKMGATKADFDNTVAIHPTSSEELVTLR
Description: Recombinant GSR (0.5 u/well) in a 96-well plate was incubated in the GSR assay buffer (50 mM potassium phosphate buffer, pH 7.5 supplemented with 1 mM EDTA), 100 μl with and without compound (30 μM) for 2 h at 25°C. At the end of incubation, 100 μl of solution containing NADPH (0.087 mM), oxidized glutathione (GSSG) (0.95 mM) and 1 μl of the reagent that detects ratio of GSSG to reduced glutathione (GSH) (Abcam) were added and the mixture was incubated for an additional 1 h at 25°C. GSR activity was measured by using 490-nm excitation and monitoring fluorescence at 520 nm with a fluorescence plate reader. One unit of GSR activity was defined as the amount of enzyme required to produce 1 μM of GSH in a total reaction volume of 200 μl in 1 minute in the GSR assay buffer containing NADPH (0.087 mM), GSSG (0.95 mM) and 1 μl of GSH/GSSG ratio detection reagent (Abcam).
Next, we evaluated the inhibitory activity of the selected compounds against human GSR enzyme using recombinant GSR and Abcam GSH/GSSG ratio detection reagent (Table 1). Briefly, GSR activity was measured by following oxidized glutathione (GSSG) reduction in the presence of NADPH and expressed as percentage of residual activity with respect to DMSO-treated enzyme. The residual activity of GSR for both the non-toxic and toxic compounds was quite heterogeneous, ranging from 100% (compounds 38) to 3% (compound 32). […] We thus conclude that GSR inhibitory activity alone cannot be used to predict the selective cytotoxicity index.

[5] = target: T2, human GAPDH enzyme (Homo sapiens, UniProt P04406); assay: GAPDH activity assay in MIA PaCa-2 cells; assay type: cell-based; settings: 2 h; for remaining activity at 30 µM: read-out: GAPDH, enzyme residual activity as compared to DMSO-treated sample
T2 construct: endogenous in cells; host or cells: MIA PaCa-2 cells
T2 sequence (P04406 whole entry): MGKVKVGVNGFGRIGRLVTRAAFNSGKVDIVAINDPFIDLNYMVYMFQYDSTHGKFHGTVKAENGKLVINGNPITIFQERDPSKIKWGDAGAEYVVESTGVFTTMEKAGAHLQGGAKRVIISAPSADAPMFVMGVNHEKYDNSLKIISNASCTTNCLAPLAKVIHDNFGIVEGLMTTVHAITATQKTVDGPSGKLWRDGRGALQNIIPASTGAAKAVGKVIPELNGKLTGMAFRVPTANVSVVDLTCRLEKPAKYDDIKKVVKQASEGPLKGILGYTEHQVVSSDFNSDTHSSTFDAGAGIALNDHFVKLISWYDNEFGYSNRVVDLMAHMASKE
Description: Cells were incubated for 2 h with either compounds (30 μM) or DMSO in a 6-well plate. Next, cells were collected in 200 μl of PBS and disrupted by sonication. Insoluble material was removed by centrifugation. The level of GAPDH activity was determined by GAPDH activity assay kit (BioVision).
As a final step, we evaluated the inhibitory activity of the selected compounds against human GAPDH enzyme in a cell-based assay using MIA PaCa-2 cells (Table 1). Cells were pre-incubated with compounds for 2 h at 37°C followed by cell lysis using sonication and GAPDH activity assay. The ability of compounds to inhibit GAPDH was expressed as percentage of GAPDH residual activity with respect to DMSO-treated cells. […] Similar to the GSR activity assay, only two of the most toxic compounds 31 and 32, were able to inhibit GAPDH by 95 and 97%, respectively.

[6] = Distribution coefficient LogD; assay type: physicochemical; settings: pH 7.4
Excerpt: We conclude that the analysis of the octanol-water partitioning is not sufficient to establish a link between degree of lipophilicity and biological activities of the selected compounds.

[7] = in vitro; settings: human
Description: We selected hepatocytes as normal cells because hepatocytes are mediate toxicity to multiple drugs and are used as a standard to assess toxicity of drugs in vitro [28]. […] For comparison with the standard of care, doxorubicin was also included in this analysis.

[8] = tested on: Complex I (bovine heart mitochondria); assay: MitoCheck Complex I activity assay; settings: 30 μM; for Mito Check I, enzyme residual activity as compared to DMSO-treated sample: bovine heart mitochondria, NADH oxidation
Description: MitoCheck Complex I activity was determined as described in the manual of the manufacturer’s manual (Cayman). Briefly, compounds (30 μM) or DMSO were mixed with the Complex I activity assay buffer that contained bovine heart mitochondria reagent, NADH, and ubiquinone in the presence of KCN to inhibit complex IV activity. The level of Complex I activity was monitored in a kinetic assay of NADH oxidation by measuring a decrease in absorbance at 340 nm. The residual Complex I activity was calculated by dividing the rate of compound wells by the rate of DMSO wells for the linear portion of the curve.
To test possible effects of compounds on ETC, we analyzed the Complex I-mediated NADH oxidation using a MitoCheck Complex I Activity Assay Kit. The level of NADH oxidation was measured by a decrease in absorbance at 340 nm and expressed as percentage of residual activity in relation to DMSO-treated mitochondria (Table 1). […] Complex I activity was estimated by the rate of NADH oxidation which was also affected by NADH/NADPH-dehydrogenase-mediated redox cycling.

[9] = HCC1187, compound alone, unit not given in Table 1, read-out: LC50 HCC1187
[10] = octanol/water, read-out: LogD, pH = 7.4
[11] = HCC1187, read-out: LC50 HCC1187

| Structure (SMILES) | EC50 [1] [µM] | CC50 [1] [µM] | CC50 [2, 9] [µM] | ROS increase, % Hepatocytes [3] [%] | remaining activity at 30 µM [4] [%] | remaining activity at 30 µM [5] [%] | logD [6, 10] | CC50 ([7]; primary hepatocytes) [µM] | Mito Check I, enzyme residual activity as compared to DMSO-treated sample [8] [%] | stimulation of Complex I activity [8] | Selective cytotoxicity index HCC 1187 ATO [2] | other results |
| --- | --- | --- | --- | --- | --- | --- | --- | --- | --- | --- | --- | --- |
| CCCCOCCCNC1=C(Cl)C(=O)c2ccccc2C1=O [compound 26] | 26.6 | 26.6 | 1.7 | 191 | 66 | 94 | 0 | 4.8 | 112 | – | – | – |
| CCCC(=O)NC1=C(Cl)C(=O)c2ccccc2C1=O [compound 31] | 10.4 | 10.4 | 1 | 228 | 28 | 5 | 2.03 | 1.6 | 159 | more than 30% | – | inhibition of GAPDH ([5]; 30 μM): almost completely inhibited GAPDH; inhibition at 30 µM [5]: 95% |
| CC1CN1C1=C(Cl)C(=O)c2ccccc2C1=O (centres unmarked) [compound 16] | 6.9 | 6.9 | – | – | 75 | 100 | – | – | 58 | – | 128.6 | CC50 [2, 11]: 3.6 µM; logD [6]: 0.7; CC50 [7]: 78 µM |
| O=C1C(Nc2ccccc2)=CC(=O)c2ncccc21 [compound 67, reference compound] | 1 | 1 | 3 | 179 | 53 | 76 | 3.45 | 17.8 | 116 | – | – | increase in anti-cancer activity ([1]; versus compound 64): approximately 10 fold |
| O=C1C(Cl)=C(NCCO)C(=O)c2ccccc21 [compound 17] | 9.8 | 9.8 | 19.2 | 132 | 65 | 89 | 1.12 | 83 | 38 | – | 46.7 | dose-response in MIA PaCa-2 cells ([1]; in the presence of ATO (5 μM), 24 h): induced a dose-response over a hundred-fold concentration range |
| CCNC1=CC(=O)c2ncccc2C1=O [compound 66] | 4.5 | 4.5 | 13.2 | 173 | 59 | 93 | 2.87 | – | 158 | more than 30% | – | improved anti-cancer activity ([1]; versus compound 49): more than 30 fold |
| CCNC1=C(Cl)C(=O)c2ccccc2C1=O [compound 3] | 59 | 59 | 23.6 | 115 | 59 | 100 | 1.01 | 81.9 | 93 | – | – | – |
| O=C1C(Cl)=C(Nc2nccs2)C(=O)c2ccccc21 [compound 38] | > 90 | – | 20.3 | 100 | 90 | 100 | 0.1 | 26 | 105 | – | – | – |
| O=C1C=C(SCCO)C(=O)c2ccccc21 [compound 60] | 6.2 | 6.2 | 0.6 | 386 | 38 | 88 | 2.99 | 3.3 | 212 | more than 30% | – | – |
| COC1=C(N(C)C)C(=O)c2ccccc2C1=O [compound 53] | 23.4 | 23.4 | > 90 | 117 | 61 | 95 | 0 | – | 51 | – | 9.5 | – |
| COC1=C(N2CC2)C(=O)c2ccccc2C1=O [compound 54] | 7.5 | 7.5 | – | – | 54 | 73 | – | – | 84 | – | 40.9 | CC50 [2, 11]: 18.2 µM; logD [6]: 0.31 |
| O=C1C(Cl)=C(NCCc2ccccc2)C(=O)c2ccccc21 [compound 36] | 16.2 | 16.2 | – | 178 | 42 | 97 | 0 | 8.8 | 135 | more than 30% | – | – |
| CC1=C(N2CC2)C(=O)c2ccccc2C1=O [compound 55] | 3.1 | 3.1 | – | – | 83 | 100 | – | – | 72 | – | 15.8 | increase in anti-cancer activity ([1]; versus compound 15): 2 fold; CC50 [2, 11]: 51.8 µM; inhibition at 30 µM ([4]; read-out: GSR-inhibiting activity): 17%; logD [6]: 0.12; CC50 [7]: > 90 µM |
